Test results reported in patent publication US20250163387A1, “HUMAN PITUITARY NEUROENDOCRINE TUMOR ORGANOIDS AND METHODS OF MAKING AND USING THE SAME” (ARIZONA BOARD OF REGENTS OF THE UNIVERSITY OF ARIZONA, A …, priority 2022, published 2025).

How the values were obtained:
[1] = tested on: macroadenomas; details: patients with macroadenomas; relacorilant for three months; cited from earlier work
[2] = tested on: iPSC^USP48MV organoids; experiment: Spectral flow cytometry (SSTR2, SSTR5, ACTH, zombie); assay type: cell-based, human; details: Rela 500 nM, Mife 500 nM
Experimental: (§1) The multicolor flow cytometry panel was designed using the Cytek®Full Spectrum Viewer online tool to calculate the similarity index. The organoids were harvested in cold SFDM media and centrifuged at 400×g for 5 minutes. Supernatant was discarded and organoids were dissociated to single cells using Accutase® (Thermo Fisher Scientific 00-4555-56). The enzymatic reaction was stopped using prewarmed DPBS and cells were then centrifuged at 400×g for 5 minutes and incubated with fluorochrome-conjugated/unconjugated primary surface or cytoplasmic antibodies at 4° C. for 30 minutes. Cells were then washed with Cell Staining Buffer (BioLegend #420-201) and incubated with secondary antibodies at 4° C. for 30 minutes. Cells were fixed using Cytofix/Cytoperm™ Fixation/Permeabilization Solution (BD Biosciences #554714) at 4° C. for 20 minutes, followed by washing with Fixation/Permeabilization wash buffer. Cells were then labeled with fluorochrome-conjugated/unconjugated intracellular primary antibodies at 4° C. for 30 minutes, washed and incubated with secondary antibodies at 4° C. for 30 minutes. Cells resuspended in cell staining buffer and fluorescence measured using the Cytek Aurora 5 Laser Spectral Flow Cytometer. An unstained cell sample was fixed and used as reference control. UltraComp eBeads™, Compensation Beads (Thermo Fisher Scientific #01-2222-42) were stained with the individual antibodies and used as single stain control for compensation and gating. Data was acquired using the Cytek™ Aurora and analyzed using Cytobank software (Beckman Coulter, Indianapolis, IN).

[3] = tested on: hPITO37; experiment: as above; assay type: cell-based, human; details: Mife 2.85 nM
Experimental: as §1

[4] = tested on: hPITO39; experiment: Nuclear Morphometric Analysis (NII); assay type: cell-based, human; details: compared to pasireotide and ketoconazole
Experimental: Nuclear Morphometric Analysis (NMA) using treated organoids was performed based on a published protocol that measures cell viability based on the changes in nuclear morphology of the cells using nuclear stain Hoechst or DAPI [30]. Images of organoid nuclei were analyzed using the ImageJ Nuclear Irregularity Index (NII) plugin for key parameters that included cell area, radius ratio, area box, aspect, and roundness. Using the published spreadsheet template, the NII of each cell was calculated with the following formula: NII=Aspect−Area Box+Radius Ratio+Roundness. The area vs NII of vehicle-treated cells were plotted as a scatter plot using the template and considered as the normal cell nuclei. The same plots were generated for each condition, and the NII and area of treated cells were compared to the normal nuclei, and classified as one of the following NMA populations: Normal (N; similar area and NII), Mitotic (S; similar area, slightly higher NII), Irregular (I; similar area, high NII), Small Regular (SR; apoptotic, low area and NII), Senescent (LR; high area, low NII), Small Irregular (SI; low area, high NII), or Large Irregular (LI; high area, high NII). […] The percentage of cells in each NII classification category were calculated and plotted as a histogram using GraphPad Prism. […]

[5] = tested on: iPSC^USP48MV organoids; experiment: Proliferation by EdU uptake; assay type: cell-based, human; details: drug alone, 500 nM
Experimental: (§2) Organoids were immunostained using published protocols by our laboratory. Proliferation was measured by using 5-ethynyl-2'-deoxyuridine (EdU) incorporation according to the Manufacturer's protocol (Click-IT EdU Alexa Fluor 555 Imaging Kit, Thermo Fisher Scientific C10338). Costaining was performed by blocking fixed organoids with 2% donkey serum (Jackson Immuno Research, #017-000-121) diluted in 0.01% PBST for 1 hr. at room temperature. Organoids were then incubated overnight at 4° C. with primary antibodies followed by secondary antibodies and Hoechst (Thermo Fisher Scientific H1399, 1:1000 in 0.01% PBST) for 1 hr at room temperature. Human specific primary antibodies used included: rabbit anti-ACTH (Thermo Fisher Scientific 701293, 1:250), rabbit anti-Synaptophysin (Thermo Fisher Scientific PA5-27286, 1:100), […] (Thermo Fisher Scientific PA5-98650, 1:50), rabbit anti-LH (Thermo Fisher Scientific PA5-102674, 1:100), mouse anti-FSH (Thermo Fisher Scientific MIF2709, 1:100), mouse anti-PRL (Thermo Fisher Scientific CF500720, 1:100), Alexa Flour conjugated GH (NB500-364AF647, 1:100) and mouse anti-CAM5.2 (SIGMA […]-95, 1:250). The secondary antibodies used included Alexa Fluor 488 Donkey Anti Rabbit IgG (H+L) (Thermo Fisher Scientific A21206, 1:100) or Alexa Fluor 647 Donkey Anti Mouse IgG (H+L) (Thermo Fisher Scientific A31571, 1:100). Organoids were visualized and images acquired by confocal microscopy using the Nikon CrestV2 Spinning Disk. Fluorescence intensity and percentage of EdU positive cells of total cells, were calculated using Nikon Elements Software (Version 5.21.05).

[6] = tested on: iPSC^ctrl organoids; experiment: Proliferation by EdU uptake; assay type: cell-based, human; details: drug alone, 500 nM
Experimental: as §2

CC#C[C@]1(O)CC[C@H]2[C@@H]3CCC4=CC(=O)CCC4=C3[C@@H](c3ccc(N(C)C)cc3)C[C@@]21C [Mifepristone]
tumor (macroadenoma) regression [1]: have not been observed | ACTH positive cells ([2]; Pas 100 nM): significant induction | cell death (Zombie positive cells) ([2]; Pas 100 nM): not observed | percentage of SSTR2 positive cells ([2]; vs Veh): significant increase | percentage of SSTR5 positive cells ([2]; vs Veh): significant increase | number of ACTH expressing cells [3]: significantly increased | cell death (Zombie positive cells) ([3]; Pas 837.5 nM, Rela 382 nM): not observed | percentage of SSTR2 positive cells ([3]; Rela 382 nM, vs Veh): significant increase | percentage of SSTR5 positive cells ([3]; Rela 382 nM, vs Veh): significant increase | Apoptosis by nuclear morphometric analysis [4]: induced significant apoptosis | cell proliferation (EdU uptake) [5]: significant increase | cell proliferation (EdU uptake) [6]: significant increase
